# Laboratory results from US20060211606A1, “Peptides” (priority 2005, published 2006).
# Entries after “also recorded” stand apart in the source; their conditions may differ. *1 amine or outer side, *2 acyl side, *3 side chain or, on linkers, in order; H or OH if unused. [ ]: non-standard residue; d: D form. PEG (Jeffamine) = not defined here; Suc = O=C(CCC(=O)[*:2])[*:1]
# Tests used:
# [1] = system: muscle cells from amyotrophic lateral sclerosis (ALS); assay: Desmin positive cell proliferation, muscle cells from amyotrophic lateral sclerosis (ALS); assay type: cell-based, human; conditions: for desmin positive cells as percentage of total cells: peptide alone, 10 ng/ml, mean±s.d.
# Source text: (§1) Human primary muscle cell cultures were isolated as previously described [Lewis et al., 2000; Sinanan et al., 2004]. Briefly, following informed consent, craniofacial (masseter) muscle biopsies were obtained from healthy adult and CMD patients during elective surgery at the Eastman and Middlesex Hospitals, London, UK. Human lower limb (vastus lateralis) muscle samples were obtained from consenting, adult healthy, FSHD and ALS patients by needle biopsy under local anaesthesia at the Royal Free Hospital, London, UK. Biopsies were pooled from several patients with the same disorder to obtain sufficient cell numbers in the primary cultures. These were washed with antibiotic (penicillin, 100 U/ml; streptomycin, 100 μg/ml; fungizone, 2.5 μg/ml; Invitrogen) supplemented DMEM (high glucose; Invitrogen), scissor-minced and tissue fragments plated into 0.2% gelatin-coated (Sigma-Aldrich) T150 cm^2 culture flasks (Helena Biosciences). Explant cultures were incubated in serum-containing Growth Media (sGM), composed of DMEM, 20% FCS (PAA Laboratories), penicillin (100 U/ml) and streptomycin ([…]) (Invitrogen), and maintained at 37° C. in humidified 95% air with 5% CO2. The first wave of migration of mononuclear cells from the explant was designated the […]-wave and this population was used throughout this study. Migratory human muscle cell were enzymatically harvested using trypsin-EDTA (Invitrogen) and subcultured in sGM until 70-80% confluency. Passage number x (Px), was defined as the xth sequential harvest of subconfluent cells. All experiments were performed using P3-5 cohorts. The expanded cells were then stored under cryogenic conditions until they were used in the experiments described below. At least 6 runs were made for each of the treatments used for each diseased muscle culture as well as for the two types of healthy muscle.
# (§2) Assessment of the number of myogenic precursors was performed as described previously (Sinanan et al., 2004). Cells were re-plated on gelatin-coated (0.2%) 13 mm coverslips at an initial density of 4.5×10^3 cells cm^−2. […]
# (§3) At the appropriate time-points, cells were fixed with methanol for 10 min (−20° C.), followed by detergent permeabilization with 0.5% Triton-X100 for 10-15 min. […] Cell-associated fluorescence and morphology, were visualized by epi-fluorescence and Leica Modulation Contrast (LMC) microscopy respectively, using an inverted Leica DMIRB microscope equipped with Leica FW4000 image processing software. For the proliferation assay, all blue and green fluorescent positive cells were counted in a field. […]
# [2] = system: normal craniofacial (masseter) primary cultures; assay: Desmin positive cell proliferation, normal craniofacial (masseter) primary cultures; assay type: cell-based, human; conditions: for desmin positive cells as percentage of total cells: peptide alone, 10 ng/ml, serum-free defined media, mean±s.d.
# Source text: as §1, §2, §3
# [3] = system: normal lower limb (quadriceps) primary cultures; assay: Desmin positive cell proliferation, normal lower limb (quadriceps) primary cultures; assay type: cell-based, human; conditions: for desmin positive cells as percentage of total cells: peptide alone, 10 ng/ml, mean±s.d.
# Source text: as §1, with “The expanded cells were then stored under cryogenic conditions until they were used in the experiments described below. At least 6 runs were made for each of the treatments used for each diseased muscle culture as well as for the two types of healthy muscle.” left out
# as §3
# [4] = system: dystrophic muscles of the mdx mouse; assay: Intramuscular injection into dystrophic muscle of mdx mice, tetanic force; assay type: in vivo; conditions: i.m. two per week for three weeks
# Procedure: Greater increases, of up to around 35% (FIGS. 3A, 3B), were recorded for intramuscular injections (two per week for three weeks) in the dystrophic muscles of the mdx mouse, which has the same type of mutation as that in human Duchenne muscular dystrophy.
# [5] = system: primary cultures derived from congenital muscular dystrophy (CMD); assay: Desmin positive cell proliferation, primary cultures from congenital muscular dystrophy (CMD); assay type: cell-based, human; conditions: for desmin positive cells as percentage of total cells: peptide alone, 10 ng/ml, mean±s.d.
# Source text: as §1, §2, §3
# infarcted ovine heart = assay: Ovine myocardial infarction, intracoronary injection, ejection fraction by echocardiography; assay type: in vivo; conditions: ovine MI; intracoronary injection 15 minutes after MI; ejection fraction day 6 vs day 1
# Source text: A myocardial infarction (MI) was induced in ovine hearts by catheterising a marginal branch of the circumflex coronary artery and injecting a small bolus of microspheres to induce localised ischemia. […] As a control, mature liver-type IGF-I was used.
# [6] = system: primary human muscle cell cultures; assay: Creatine phosphokinase (CPK) assay of myogenic differentiation / myotube formation; assay type: cell-based; conditions: for effect on myoblast differentiation and myotube formation: differentiation medium, 48 hours, peptide alone (IGF-I 10 ng/ml)
# Procedure: This assay was performed using previously published protocols [Auluck et al., 2005]. Measurement of CPK allows for the quantitative comparison of myogenesis [Goto et al., 1999], as it is a marker of myotube formation. The enzyme CPK catalyzes the reversible phosphorylation of adenosine-5-diphosphate (ADP) to form adenosine-5-triphosphate (ATP) and free creatine. The reaction may be followed in either direction by measuring the formation of inorganic phosphorus, an end-product of the reaction which is proportional to CPK activity. This was measured using the calorimetric method based on the generation of inorganic phosphate [Fiske and Subbarow, 1925] procedure. This was then expressed in terms of the protein content of the culture.
# Previously expanded primary human muscle cell cultures were re-plated at 10×10^4 cells/well in 0.2% gelatin coated 96 well plates. […] (Sigma-Aldrich IGF-I ER2). After 48 hours, cells were washed twice with ice cold PBS and then stored frozen in 0.5 mM glycine buffer (pH 6.75) at −70° C. Fixed cells were lysed by rapid thawing and CPK assay kit used according to manufacturers instructions (Sigma-Aldrich). The protein concentration of each sample was determined against an albumin standard curve using the Pierce Micro BCA Kit (PerBio Science, UK Ltd., Northumberland, UK).
# muscle cells from FSHD = assay: Desmin positive cell proliferation, muscle cells from FSHD; assay type: cell-based, human; conditions: for desmin positive cells as percentage of total cells: peptide alone, 10 ng/ml, mean±s.d.
# Source text: as §1, with “The expanded cells were then stored under cryogenic conditions until they were used in the experiments described below. At least 6 runs were made for each of the treatments used for each diseased muscle culture as well as for the two types of healthy muscle.” left out
# as §3
# [7] = stabilised peptide in combination with IGF-I
Substance,desmin positive cells as percentage of total cells [1] [%],desmin positive cells as percentage of total cells ([2]; normal craniofacial) [%],desmin positive cells as percentage of total cells [3] [%],percentage change in tetanic force (increase in muscle strength) [4],desmin positive cells as percentage of total cells [5] [%],effect on percentage of viable myocardium and ejection fraction (infarcted ovine heart),effect on myoblast differentiation and myotube formation [6],effect on myoblast differentiation and myotube formation ([6]; listed as mature IGF-I),desmin positive cells as percentage of total cells (muscle cells from FSHD) [%],"desmin positive cells as percentage of total cells, IGF-I added [1, 7] [%]","desmin positive cells as percentage of total cells, plus anti-IGF-I receptor antibody Ab-1 ([1]; stabilised peptide plus Ab-1) [%]","desmin positive cells as percentage of total cells, IGF-I added ([2]; normal craniofacial, stabilised peptide in combination with IGF-I (10 ng/ml each)) [%]","desmin positive cells as percentage of total cells, plus anti-IGF-I receptor antibody Ab-1 ([2]; normal muscle, stabilised peptide plus Ab-1) [%]","desmin positive cells as percentage of total cells, IGF-I added [3, 7] [%]","desmin positive cells as percentage of total cells, IGF-I added [5, 7] [%]","desmin positive cells as percentage of total cells, plus anti-IGF-I receptor antibody Ab-1 ([5]; stabilised peptide plus Ab-1) [%]","effect on differentiation in the presence of 10 ng/ml IGF-I ([6]; stabilised peptide with 10 ng/ml IGF-I, dose-dependent)","desmin positive cells as percentage of total cells, IGF-I added (muscle cells from FSHD; [7]) [%]"
"IGF-I: IGF-I receptor binding domain encoded by Exons 3 and 4, common to all splice variants, approximately 70 amino acids [reference compound]",4.7±1.4,58.4±4.2,47.1±3.5,around 5%,13.2±1.7,much smaller effect,apparently stimulates myotube formation,enhanced differentiation,14.1±1.6,,,,,,,,,
"stabilised peptide: SEQ ID NO: 15 with D-Arginine at positions 14 and 15, N-terminus attached to PEG (Jeffamine) via succinic acid bridge, amidated at C-terminus ({PEG (Jeffamine)-Suc}-YQPPSTNKNTKSQ[dR][dR]KGSTFEEHK-NH2; reading uncertain)",7.2±0.8,68.8±3.9,57.9±3.2,≤ 35%,17.5±1.6,markedly increase the percentage of viable myocardium and the ejection fraction,no effect on myotube formation; also recorded: did not facilitate primary myoblast differentiation and myotube formation,,20.4±2.1,5.3±1.0,6.5±0.8,59.5±4.2,71.1±6.2,38.8±0.6,13.1±1.2,16.7±1.8,prevented differentiation to the myoblast fusion competent stage,14.5±1.4
